One experiment deals with T1, cyclin B/CDK1 enzyme (Homo sapiens, UniProt P06493).
T1 construct: purchased New England BioLabs; host or cells: Sf9 insect cells, recombinant baculovirus
Nature of the experiment: CDK1 ELISA kinase assay (phospho-Rb ser 795 detection). The format is biochemical. The following applies: In Vitro Enzyme Assay, cyclin B/CDK1, read-out: CDK1 IC50. Put shortly: (§1)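 Wells were coated overnight with GST-Rb C-terminal fragment, then blocked. Compound (10 ug/ml final) and cyclin/CDK enzyme from baculovirus-infected Sf9 cells with 200 μM ATP reacted 1 h at 30° C. Ser795 phosphorylation was detected by ELISA at 450 nm.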

A further experiment has as its system MCF-7. Description: Cytotoxicity assay (SRB), MCF-7. In kind it is cell-based. The following applies: Homo sapiens, MCF7, 72 h, MCF-7 cells, 3 days, SRB; read-out: In Vitro Cellular Activity IC50 MCF-7. Put shortly: (§2)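 Plate cells, let them attach overnight, add compound dilutions in RPMI 1640/5% FBS, and incubate 3 days (BT474 6 days). Then fix with TCA, stain with SRB, dissolve the dye in Tris and read at 540 nm.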

A further experiment concerns HCT-116. Nature of the experiment: Cytotoxicity assay (SRB), HCT-116. In kind it is cell-based. To be noted: Homo sapiens, HCT-116, 72 h, HCT116 cells, 3 days, SRB; read-out: In Vitro Cellular Activity IC50 HCT116. Put shortly: as §2
Another experiment concerns the target T2, cyclin D1/cdk 4 enzyme (Homo sapiens, UniProt P11802).
T2 construct: made in house; host or cells: Sf9 insect cells, recombinant baculovirus
Description: CDK4 ELISA kinase assay (phospho-Rb ser 795 detection). The format is biochemical. To be noted: In Vitro Enzyme Assay, cyclin D1/cdk 4, read-out: CDK4 IC50. Put shortly: as §1
In general terms: In an ELISA, binding on a coated surface is turned into a signal by an enzyme label.

The next experiment has as its system BT474. Nature of the experiment: Cytotoxicity assay (SRB), BT474. In kind it is cell-based. To be noted: Homo sapiens, BT-474, 144 h, BT474 cells, 6 days, SRB; read-out: In Vitro Cellular Activity IC50 BT474. Put shortly:
as §2

A further experiment deals with T3, cyclin E/CDK2 enzyme (Homo sapiens, UniProt P24941).
T3 construct: made in house; host or cells: Sf9 insect cells, recombinant baculovirus
Description: CDK2 ELISA kinase assay (phospho-Rb ser 795 detection). To be noted: In Vitro Enzyme Assay, cyclin E/CDK2, read-out: CDK2 IC50. In kind it is biochemical. The method, boiled down:
as §1

A further experiment deals with LoVo. Description: Cytotoxicity assay (SRB), LoVo. The format is cell-based. To be noted: Homo sapiens, LoVo, 72 h, LoVo cells, 3 days, SRB; read-out: In Vitro Cellular Activity IC50 LOVO. Put shortly:
as §2

The structures appear in SMILES notation.

T2 sequence (P11802 whole entry, species assumed): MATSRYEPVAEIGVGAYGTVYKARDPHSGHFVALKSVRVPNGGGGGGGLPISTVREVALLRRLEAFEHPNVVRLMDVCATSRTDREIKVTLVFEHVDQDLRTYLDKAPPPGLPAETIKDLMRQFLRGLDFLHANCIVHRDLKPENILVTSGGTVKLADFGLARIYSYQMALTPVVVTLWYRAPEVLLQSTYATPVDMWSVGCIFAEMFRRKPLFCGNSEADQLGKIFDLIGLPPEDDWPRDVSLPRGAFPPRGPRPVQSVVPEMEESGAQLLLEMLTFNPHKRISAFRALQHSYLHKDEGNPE
T2 sequence (P24385 whole entry partner, species assumed): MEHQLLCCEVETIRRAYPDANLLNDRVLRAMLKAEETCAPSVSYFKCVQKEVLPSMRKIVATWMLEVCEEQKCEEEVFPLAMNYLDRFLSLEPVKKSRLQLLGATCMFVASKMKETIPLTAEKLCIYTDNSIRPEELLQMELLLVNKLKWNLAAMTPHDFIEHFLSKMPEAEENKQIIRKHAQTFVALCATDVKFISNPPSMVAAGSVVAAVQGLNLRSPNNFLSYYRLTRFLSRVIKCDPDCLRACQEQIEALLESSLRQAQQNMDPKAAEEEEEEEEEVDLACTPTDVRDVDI
T1 sequence (P06493 whole entry): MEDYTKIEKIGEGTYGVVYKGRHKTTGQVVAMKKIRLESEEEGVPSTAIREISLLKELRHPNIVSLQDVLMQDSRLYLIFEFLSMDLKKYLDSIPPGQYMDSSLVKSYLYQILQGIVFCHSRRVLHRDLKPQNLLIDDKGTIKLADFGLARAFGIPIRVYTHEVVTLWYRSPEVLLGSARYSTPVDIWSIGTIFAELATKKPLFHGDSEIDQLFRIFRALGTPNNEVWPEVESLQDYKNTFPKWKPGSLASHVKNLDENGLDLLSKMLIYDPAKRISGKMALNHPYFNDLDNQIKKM
T1 sequence (P14635 whole entry partner): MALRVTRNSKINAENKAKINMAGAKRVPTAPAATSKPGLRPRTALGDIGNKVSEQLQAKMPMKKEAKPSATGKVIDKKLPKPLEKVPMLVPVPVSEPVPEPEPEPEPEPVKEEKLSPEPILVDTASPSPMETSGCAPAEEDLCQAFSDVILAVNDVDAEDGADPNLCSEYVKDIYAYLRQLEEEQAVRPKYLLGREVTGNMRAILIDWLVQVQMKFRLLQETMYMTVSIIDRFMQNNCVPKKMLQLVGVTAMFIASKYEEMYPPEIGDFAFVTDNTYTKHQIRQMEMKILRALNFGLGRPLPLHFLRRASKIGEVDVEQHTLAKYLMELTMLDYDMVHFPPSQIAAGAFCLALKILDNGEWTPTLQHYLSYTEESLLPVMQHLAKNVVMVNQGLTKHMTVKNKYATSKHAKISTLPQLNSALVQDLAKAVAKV

The term IC50 denotes the concentration at which inhibition is half-maximal. With `O=C1NC(=O)c2ccc(I)cc2/C1=C/NCc1cc(O)ccc1-c1ccco1` [Example 499, 4-[(2-Furan-2-yl-5-hydroxy-benzylamino)-methylene]-6-iodo-4H-isoquinoline-1,3-dione], the IC50 at cyclin B/CDK1 enzyme is above 50000 nM; in the experiment on MCF-7 it was 9100 nM; with HCT-116, 4800 nM; at cyclin D1/cdk 4 enzyme it was 5400 nM; with BT474, 9800 nM; at cyclin E/CDK2 enzyme, 41500 nM. The IC50 with LoVo is 8400 nM.

As for `O=C1NC(=O)c2ccc(I)cc2/C1=C/NCc1ccc(-c2ccc(F)cc2)c(O)c1` [Example 500, 4-{[(4′-Fluoro-2-hydroxy-biphenyl-4-ylmethyl)-amino]-methylene}-6-iodo-4H-isoquinoline-1,3-dione], the half-inhibitory concentration (IC50) at cyclin B/CDK1 enzyme was determined as 43400 nM; in the experiment on MCF-7, 3800 nM; in the experiment with HCT-116, 1900 nM; at cyclin D1/cdk 4 enzyme it was 140 nM; in the experiment with BT474 it was 2300 nM; at cyclin E/CDK2 enzyme, 15100 nM. Also, in the experiment on LoVo, the IC50 was 1800 nM.

`O=C1NC(=O)c2ccc(-c3ccco3)cc2/C1=C/NCc1ccc(-c2ccc(F)cc2)c(O)c1` [Example 501, 4-{[(4′-Fluoro-2-hydroxy-biphenyl-4-ylmethyl)-amino]-methylene}-6-furan-2-yl-4H-isoquinoline-1,3-dione]: the IC50 is above 50000 nM at cyclin B/CDK1 enzyme; 1400 nM in the experiment with MCF-7; 2600 nM in the experiment on HCT-116; 30 nM on cyclin D1/cdk 4 enzyme; 3500 nM in the experiment on BT474; 29300 nM on cyclin E/CDK2 enzyme. For the same compound, the half-inhibitory concentration (IC50) in the experiment on LoVo is 2900 nM.

`O=C1NC(=O)c2ccc(-c3ccco3)cc2/C1=C/NCc1cc(O)ccc1I` [Example 503, 6-Furan-2-yl-4-[(5-hydroxy-2-iodo-benzylamino)-methylene]-4H-isoquinoline-1,3-dione]: the IC50 on cyclin B/CDK1 enzyme is above 50000 nM; in the experiment with MCF-7 it was 1000 nM; in the experiment with HCT-116, 5200 nM; at cyclin D1/cdk 4 enzyme it was 20 nM; in the experiment on BT474, 1600 nM; on cyclin E/CDK2 enzyme it was 34700 nM. Besides, in the experiment on LoVo, the 50% inhibitory concentration (IC50) worked out at 5100 nM.

Consider `O=C1NC(=O)c2ccc(I)cc2/C1=C/NCc1ccc(I)c(O)c1` [Example 504, 4-[(3-Hydroxy-4-iodo-benzylamino)-methylene]-6-iodo-4H-isoquinoline-1,3-dione], for which the IC50 was above 50000 nM at cyclin B/CDK1 enzyme; 1500 nM in the experiment with MCF-7; 3900 nM with HCT-116; 8 nM on cyclin D1/cdk 4 enzyme; 1000 nM in the experiment on BT474; above 50000 nM on cyclin E/CDK2 enzyme. For the same compound, the IC50 in the experiment with LoVo amounted to 4300 nM.

As for `CN(C)C1CCN(Cc2ccc(N/C=C3\C(=O)NC(=O)c4ccc(-c5ccoc5)cc43)cc2)C1` (stereo not shown) [Example 513, (4Z)-4-{[(4-{[3-(Dimethylamino)pyrrolidin-1-yl]methyl}phenyl)amino]methylene}-6-(3-furyl)isoquinoline-1,3(2H,4H)-dione], the half-inhibitory concentration (IC50) is above 50000 nM at cyclin B/CDK1 enzyme; 2530 nM in the experiment on MCF-7; 1540 nM in the experiment on HCT-116; 170 nM on cyclin D1/cdk 4 enzyme; 1840 nM in the experiment with BT474; 13200 nM at cyclin E/CDK2 enzyme. In the experiment on LoVo, the half-maximal inhibitory concentration (IC50) is 3450 nM.

Regarding `O=C1NC(=O)c2ccc(I)cc2/C1=C/NCc1ccc(NC(=O)c2ccco2)c(O)c1` [Example 516, N-[2-Hydroxy-4-({[(Z)-(6-iodo-1,3-dioxo-2,3-dihydroisoquinolin-4(1H)-ylidene)methyl]amino}methyl)phenyl]-2-furamide], the IC50 was above 50000 nM on cyclin B/CDK1 enzyme; 24100 nM in the experiment on MCF-7; 3830 nM in the experiment on HCT-116; 220 nM at cyclin D1/cdk 4 enzyme; 18200 nM in the experiment on BT474; above 50000 nM at cyclin E/CDK2 enzyme. In the experiment on LoVo, the half-maximal inhibitory concentration (IC50) worked out at 21400 nM.

With `CN(C)Cc1cccc(-c2ccc(CN/C=C3\C(=O)NC(=O)c4ccc(I)cc43)cc2O)c1` [Example 519, 4-{[(3′-Dimethylaminomethyl-2-hydroxy-biphenyl-4-ylmethyl)-amino]-methylene}-6-iodo-4H-isoquinoline-1,3-dione], the half-inhibitory concentration (IC50) was 17300 nM on cyclin B/CDK1 enzyme; 1000 nM with MCF-7; 820 nM in the experiment on HCT-116; 10 nM at cyclin D1/cdk 4 enzyme; 2200 nM in the experiment on BT474; 6500 nM at cyclin E/CDK2 enzyme. Also, the half-inhibitory concentration (IC50) in the experiment with LoVo was determined as 1400 nM.

With `O=C1NC(=O)c2ccc(I)cc2/C1=C/NCc1cc(O)c(OCCN2CCCC2)cn1` [Example 522, 4-({[4-Hydroxy-5-(2-pyrrolidin-1-yl-ethoxy)-pyridin-2-ylmethyl]-amino}-methylene)-6-iodo-4H-isoquinoline-1,3-dione], the IC50 came to 32400 nM at cyclin B/CDK1 enzyme; 990 nM in the experiment with MCF-7; 1420 nM with HCT-116; 110 nM on cyclin D1/cdk 4 enzyme; 2130 nM with BT474; 4500 nM at cyclin E/CDK2 enzyme. The IC50 in the experiment on LoVo worked out at 1190 nM.

Consider `CN(C)CC(=O)Nc1ccc(CN/C=C2\C(=O)NC(=O)c3ccc(I)cc32)cc1O` [Example 526, N^1-[2-Hydroxy-4-({[(Z)-(6-iodo-1,3-dioxo-2,3-dihydroisoquinolin-4(1H)-ylidene)methyl]amino}methyl)phenyl]-N^2,N^2-dimethylglycinamide], for which the IC50 is 2100 nM at cyclin B/CDK1 enzyme; 3300 nM in the experiment on MCF-7; 2400 nM in the experiment with HCT-116; 20 nM at cyclin D1/cdk 4 enzyme; 7200 nM in the experiment on BT474; 500 nM at cyclin E/CDK2 enzyme. Moreover, the half-maximal inhibitory concentration (IC50) in the experiment on LoVo worked out at 5600 nM.

Regarding `CCCCn1ccc(CN/C=C2\C(=O)NC(=O)c3ccc(I)cc32)cc1=O` [Example 529, (4Z)-6-Iodo-4-({[(1-butyl-2-oxo-1,2-dihydropyridin-4-yl)methyl]amino}methylene)isoquinoline-1,3(2H,4H)-dione], the concentration for half-maximal inhibition (IC50) on cyclin B/CDK1 enzyme stood at 22400 nM; in the experiment on MCF-7, 2400 nM; with HCT-116 it was 1700 nM; on cyclin D1/cdk 4 enzyme, 100 nM; with BT474, 1200 nM; on cyclin E/CDK2 enzyme, 5000 nM. Also, the IC50 in the experiment with LoVo was 1500 nM.

On to `CC(C)(C)c1ccc2c(c1)/C(=C/NCc1ccn(-c3ccoc3)c(=O)c1)C(=O)NC2=O` [Example 533, (4Z)-6-tert-Butyl-4-[({[1-(3-furyl)-2-oxo-1,2-dihydropyridin-4-yl]methyl}amino)methylene]isoquinoline-1,3(2H,4H)-dione], for which the IC50 on cyclin B/CDK1 enzyme came to 6400 nM; in the experiment on MCF-7, 1500 nM; with HCT-116, 1500 nM; on cyclin D1/cdk 4 enzyme, 30 nM; with BT474, 490 nM; at cyclin E/CDK2 enzyme, 3500 nM. The concentration for half-maximal inhibition (IC50) with LoVo was 730 nM.

Turning to `CC(C)(C)c1ccc2c(c1)/C(=C/NCc1cc(O)c(-c3ccoc3)cc1F)C(=O)NC2=O` [Example 534, 6-tert-Butyl-4-[(2-fluoro-4-furan-3-yl-5-hydroxy-benzylamino)-methylene]-4H-isoquinoline-1,3-dione], the IC50 at cyclin B/CDK1 enzyme is above 50000 nM; with MCF-7, 2600 nM; with HCT-116, 1600 nM; on cyclin D1/cdk 4 enzyme, 90 nM; in the experiment with BT474, 730 nM; at cyclin E/CDK2 enzyme, above 50000 nM. In addition, the IC50 in the experiment on LoVo came out at 1200 nM.

As for `O=C1NC(=O)c2ccc(C3CCCC3)cc2/C1=C/NCc1ccc(-c2ccoc2)c(O)c1` [Example 536, 6-Cyclopentyl-4-[(4-furan-3-yl-3-hydroxy-benzylamino)-methylene]-4H-isoquinoline-1,3-dione], the IC50 was above 50000 nM at cyclin B/CDK1 enzyme; 2100 nM in the experiment on MCF-7; 1100 nM in the experiment on HCT-116; 20 nM at cyclin D1/cdk 4 enzyme; 430 nM with BT474; 3100 nM at cyclin E/CDK2 enzyme. Further, the IC50 in the experiment with LoVo was found to be 510 nM.

`CCN(CC)Cc1ccc(NC=C2C(=O)NC(=O)c3ccccc32)cc1` [Example 574, 4-[(4-Diethylaminomethyl-phenylamino)-methylene]-4H-isoquinoline-1,3-dione]: the concentration for half-maximal inhibition (IC50) at cyclin B/CDK1 enzyme is 18500 nM; in the experiment on MCF-7 it was 14000 nM; in the experiment on HCT-116, 10300 nM; on cyclin D1/cdk 4 enzyme, 5500 nM; with BT474, 10600 nM; at cyclin E/CDK2 enzyme it was 30400 nM. For the same compound, the IC50 in the experiment on LoVo is 29800 nM.

Regarding `CCCN(Cc1ccc(NC=C2C(=O)NC(=O)c3ccccc32)cc1)CC1CC1` [Example 575, 4-({4-[(Cyclopropylmethyl-propyl-amino)-methyl]-phenylamino}-methylene)-4H-isoquinoline-1,3-dione], the IC50 is 11800 nM at cyclin B/CDK1 enzyme; 20300 nM in the experiment on MCF-7; 16600 nM in the experiment with HCT-116; 9200 nM on cyclin D1/cdk 4 enzyme; 28100 nM in the experiment on BT474; above 50000 nM on cyclin E/CDK2 enzyme. Moreover, the IC50 with LoVo stood at 21800 nM.

(Values after patent publication US7713994B2 (Wyeth LLC, priority 2005, dated 2010).)
